According to US11332450B2, “Isoxazole as FXR receptor agonists” (Bar Pharmaceuticals Societa' A Responsabilita' Limitata, priority 2018, dated 2022):

How the values were obtained:
[1] = Microsomal stability in mouse liver microsomes; type: in vitro ADME; conditions: male CD-1 mouse liver microsomes, 1 μM compound, 37° C.
Experimental: Male mouse (CD-1) liver microsomes (Sigma-Aldrich) were used. All incubations were performed in duplicate in a shaking water bath at 37° C. […] Aliquots were removed at 0, 5, 10, 20, 30, and 40 min after microsome addition and the reaction was stopped by adding 200 μL of ice-cold acetonitrile. After 2 h, the samples were centrifuged for 10 min at 10000 rpm, and the supernatants were transferred in matrix tubes for LC-MS/MS analysis. Propranolol, known as a high hepatic clearance drug in rodents, was used as a quality-control compound for the microsomal incubations. The slope of the linear regression of the curve obtained reporting the natural logarithm of compound area versus incubation time (−k) was used in the conversion to in vitro t1/2 values by t1/2=−ln(2)/k. In vitro intrinsic clearance (CLint expressed as μL/min/mg) was calculated according to the following formula: Clint=volume of reaction (μL)/t1/2 (min)/protein of liver microsomes (mg).

[2] = rats, oral administration; cited from earlier work
[3] = ascribed to the stilbene moiety; cited from earlier work
SHP mRNA = SHP mRNA expression in HepG2 cells (RT-PCR); type: cell-based, human
Experimental: RNA isolation and RT-PCR. HepG2 cells were plated at the density of 1×10^6 cells/flask in T25 flask. […] Total RNA was isolated from HepG2 cells or liver tissue using the TRIzol reagent according to the manufacturer's specifications (Invitrogen). One microgram of purified RNA was treated with DNase-I and reverse transcribed with QuantiTect Reverse Transcription Kit (Qiagen). For Real Time PCR, 10 ng template was dissolved in 25 μL containing 200 nmol/L of each primer and 12.5 μL of 2×SYBR FAST Universal ready mix (Invitrogen). All reactions were performed in triplicate, and the thermal cycling conditions were as follows: 2 min at 95° C., followed by 40 cycles of 95° C. for 20 s and 60° C. for 30 s in StepOnePlus (Applied Biosystems). The relative mRNA expression was calculated in accord to the Ct method. Forward and reverse primer sequences were the following: human GAPDH: [NT] (SEQ ID: 1) and [NT] (SEQ ID: 2); human SHP: [NT] (SEQ ID: 3) and [NT] (SEQ ID: 4); mouse GAPDH, [NT] (SEQ ID: 5) and [NT] (SEQ ID: 6); mouse SHP [NT] (SEQ ID: 7) and [NT] (SEQ ID: 8); mouse FXR: [NT] (SEQ ID: 9) and [NT] (SEQ ID: 10); mouse BSEP: [NT] (SEQ ID: 11) and [NT] (SEQ ID: 12).

liver BSEP mRNA = experiment: Liver BSEP mRNA expression in mice after administration of compound; type: in vivo, mouse; conditions: administered per os, 10 mg/kg daily for 3 days
Experimental: (§1) Total RNA was isolated from HepG2 cells or liver tissue using the TRIzol reagent according to the manufacturer's specifications (Invitrogen). One microgram of purified RNA was treated with DNase-I and reverse transcribed with QuantiTect Reverse Transcription Kit (Qiagen). For Real Time PCR, 10 ng template was dissolved in 25 μL containing 200 nmol/L of each primer and 12.5 μL of 2×SYBR FAST Universal ready mix (Invitrogen). All reactions were performed in triplicate, and the thermal cycling conditions were as follows: 2 min at 95° C., followed by 40 cycles of 95° C. for 20 s and 60° C. for 30 s in StepOnePlus (Applied Biosystems). The relative mRNA expression was calculated in accord to the Ct method. Forward and reverse primer sequences were the following: human GAPDH: [NT] (SEQ ID: 1) and [NT] (SEQ ID: 2); human SHP: [NT] (SEQ ID: 3) and [NT] (SEQ ID: 4); mouse GAPDH, [NT] (SEQ ID: 5) and [NT] (SEQ ID: 6); mouse SHP [NT] (SEQ ID: 7) and [NT] (SEQ ID: 8); mouse FXR: [NT] (SEQ ID: 9) and [NT] (SEQ ID: 10); mouse BSEP: [NT] (SEQ ID: 11) and [NT] (SEQ ID: 12). C57BL/6N male mice were from The Jackson's Laboratory. […] The general health of the animals was monitored daily by the Veterinarian in the animal facility. […]

liver SHP mRNA = experiment: Liver SHP mRNA expression in mice after administration of compound; type: in vivo, mouse; conditions: administered per os, 10 mg/kg daily for 3 days
Experimental: as §1

CC(C)c1onc(-c2c(Cl)cccc2Cl)c1COc1ccc(/C=C/c2cccc(C(=O)O)c2)c(Cl)c1 [GW4064]
Clint [1]: 56 µL/min/mg
t1/2 [1]: 41 min
intestinal absorption [2]: < 10%
terminal half-life [2]: short
UV light stability [3]: UV light instability
SHP mRNA expression induction (SHP mRNA; reference compound at 10 μM concentration): 4.2 times

CC(C)c1onc(-c2c(Cl)cccc2Cl)c1COc1ccc(COc2cccc(C(=O)O)c2)cc1 [BAR2123, 3-((4-((3-(2,6-dichlorophenyl)-5-isopropylisoxazol-4-yl)methoxy)benzyl)oxy)benzoic Acid]
SHP mRNA expression induction (SHP mRNA; 5 μM concentration, 18 h): 6.2 times

CC(C)c1onc(-c2c(Cl)cccc2Cl)c1COc1ccc(COc2ccc(C(=O)O)cc2)cc1 [BAR2109, 4-((4-((3-(2,6-dichlorophenyl)-5-isopropylisoxazol-4-yl)methoxy)benzyl)oxy)benzoic Acid]
liver BSEP mRNA expression (liver BSEP mRNA): inducing
liver SHP mRNA expression (liver SHP mRNA): inducing
SHP mRNA expression induction (SHP mRNA; 5 μM concentration, 18 h): 6.8 times
